According to PubChem BioAssay (NCI):
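Step 1: Grow cells in 96-well plates. Step 2: Expose to compound for 48 hours at 5 concentrations. Step 3: Interpolate endpoints linearly; if unreached, use highest concentration. GI50 = concentration required for 50% inhibition of growth. The concentration for full growth arrest is given as TGI.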

Tests used:
Assay in all cases: DTP human tumour cell line panel, 48 h
OVCAR-5 ovarian = tested on: OVCAR-5 ovarian
UO-31 renal = tested on: UO-31 renal
IGROV1 ovarian = tested on: IGROV1 ovarian
OVCAR-4 ovarian = tested on: OVCAR-4 ovarian
SN12C renal = tested on: SN12C renal
OVCAR-3 ovarian = tested on: OVCAR-3 ovarian
T-47D breast = tested on: T-47D breast
NCI-H226 lung = tested on: NCI-H226 lung
HCT-15 colon = tested on: HCT-15 colon
SK-MEL-2 melanoma = tested on: SK-MEL-2 melanoma

Row | Compound | GI50 (OVCAR-5 ovarian) | TGI (OVCAR-5 ovarian) | GI50 (UO-31 renal) | TGI (UO-31 renal) | GI50 (IGROV1 ovarian) | TGI (IGROV1 ovarian) | GI50 (OVCAR-4 ovarian) | TGI (OVCAR-4 ovarian) | GI50 (SN12C renal) | TGI (SN12C renal) | GI50 (OVCAR-3 ovarian) | TGI (OVCAR-3 ovarian) | GI50 (T-47D breast) | TGI (T-47D breast) | GI50 (NCI-H226 lung) | TGI (NCI-H226 lung) | GI50 (HCT-15 colon) | TGI (HCT-15 colon) | GI50 (SK-MEL-2 melanoma) | TGI (SK-MEL-2 melanoma)
1 | FC(F)(F)c1ccc(-c2cnc(-c3ncon3)nc2NC2CCCCCC2)cc1 | > 100 µM | > 100 µM | 26.4 µM | > 100 µM | 52.5 µM | > 100 µM | 37.2 µM | > 100 µM | 21.4 µM | 63 µM | 36.8 µM | > 100 µM | 25.6 µM | 87.3 µM | 43.1 µM | > 100 µM | 34.3 µM | > 100 µM | – | –
2 | CCCCCCCCCCCCCCCCCC[n+]1ccc2c(C)c3c(c(C)c2c1)c1cc(O)ccc1n3CC | 4.38 µM | 24.8 µM | 3.39 µM | 18.7 µM | – | – | 0.954 µM | 12 µM | 1.79 µM | 6.08 µM | 1.88 µM | 4.68 µM | 2.57 µM | 27.3 µM | 1.88 µM | 8.68 µM | 3.34 µM | 47.1 µM | 1.58 µM | 3.27 µM
3 | Cc1[nH]c2ccccc2c1C(=O)CC1(O)C(=O)Nc2c(Cl)cc(Cl)cc21 (configuration not stated) | – | 52.1 µM | – | 60.9 µM | – | > 100 µM | – | 21.8 µM | – | 55.6 µM | – | 44 µM | – | – | – | 42.7 µM | – | > 100 µM | – | 81 µM
4 | Cc1ccc(/C=C/C(=O)C(C)(C)CN2CCCCC2)cc1 | – | 30 µM | – | 22 µM | – | 35.6 µM | – | 22.9 µM | – | 15.1 µM | – | 8.65 µM | – | – | – | 27.6 µM | – | 20.1 µM | – | 23.4 µM
5 | CC#CCC1CCC(OCC)=CC1=O (configuration not stated) | – | > 100 µM | – | > 100 µM | – | > 100 µM | – | > 100 µM | – | > 100 µM | – | > 100 µM | – | – | – | > 100 µM | – | > 100 µM | – | > 100 µM
6 | CO/N=C(\COc1ccc2c(c1)[nH]c1ccccc12)c1ccc(F)cc1 | > 100 µM | > 100 µM | > 100 µM | > 100 µM | 77.3 µM | > 100 µM | 26.1 µM | > 100 µM | > 100 µM | > 100 µM | 10.6 µM | > 100 µM | > 100 µM | > 100 µM | > 100 µM | > 100 µM | > 100 µM | > 100 µM | – | –
7 | Fc1ccc(C2SCc3nc4ccccc4n32)c(F)c1 (configuration not stated) | – | > 100 µM | – | > 100 µM | – | > 100 µM | – | > 100 µM | – | > 100 µM | – | > 100 µM | – | – | – | > 100 µM | – | > 100 µM | – | > 100 µM
8 | O=C1c2c(c3c4ccccc4[nH]c3c3ccc4ccccc4c23)C(=O)N1CCN1CCNCC1 | 1.72 µM | 3.12 µM | 1.24 µM | 2.53 µM | 1.46 µM | 2.84 µM | 1.65 µM | 3.26 µM | 1.68 µM | 3.13 µM | 1.83 µM | 3.48 µM | – | – | 11.7 µM | 33.3 µM | 1.49 µM | 2.98 µM | 2.03 µM | 4.7 µM
9 | O=c1[nH]c(=O)n(C2CC(O)C(COP(=O)(OCc3ccc([N+](=O)[O-])o3)N(CCCCCl)CC(O)CO)O2)cc1F (configuration not stated) | > 100 µM | > 100 µM | 0.174 µM | > 100 µM | – | – | > 100 µM | > 100 µM | < 0.0496 µM | – | 0.39 µM | – | > 21.4 µM | > 100 µM | 0.157 µM | > 55.2 µM | 4.53 µM | > 100 µM | > 73.8 µM | > 100 µM
10 | CC1(O)C=CC(=O)C=C1 | – | > 100 µM | – | > 84.5 µM | – | 70.2 µM | – | > 91.1 µM | – | > 100 µM | – | 51.4 µM | – | – | – | > 100 µM | – | 31.7 µM | – | 56 µM
11 | CS(=O)(=O)c1ccc(-c2cc(-c3ccc(S(C)(=O)=O)cc3)[n+](-c3cc(-c4ccc(S(C)(=O)=O)cc4)c([O-])c(-c4ccc(S(C)(=O)=O)cc4)c3)c(-c3ccc(S(C)(=O)=O)cc3)c2)cc1 | – | > 100 µM | – | > 100 µM | – | > 100 µM | – | > 100 µM | – | > 100 µM | – | > 100 µM | – | – | – | > 100 µM | – | > 100 µM | – | > 100 µM
12 | CC(=O)OC12C=C(C)C(C(C)C1)C1C(=O)N(CCN3CCOCC3)C(=O)C12 (configuration not stated) | > 100 µM | > 100 µM | > 100 µM | > 100 µM | > 100 µM | > 100 µM | > 100 µM | > 100 µM | > 100 µM | > 100 µM | – | – | > 100 µM | > 100 µM | > 100 µM | > 100 µM | > 100 µM | > 100 µM | > 100 µM | > 100 µM
13 | CCOC(=O)C1=C(C)N(c2ccc(Cl)cc2)[C@]2(C#N)C(O)=C(Cl)C(Cl)=C(O)[C@]12C#N | – | – | 53.8 µM | > 100 µM | > 100 µM | > 100 µM | > 100 µM | > 100 µM | > 100 µM | > 100 µM | 65 µM | > 100 µM | 16.9 µM | 81 µM | > 100 µM | > 100 µM | 45.8 µM | > 100 µM | > 100 µM | > 100 µM
14 | O=C1c2ccccc2-c2cc([N+](=O)[O-])c([N+](=O)[O-])cc21 | – | 5.41 µM | – | 3.07 µM | – | 2.84 µM | – | 3.31 µM | – | 3.42 µM | – | 1.01 µM | – | 2.69 µM | – | 12.6 µM | – | – | – | 3.66 µM
15 | COc1cc(N2C(=O)[C@H](O)C2c2ccc(SC)cc2)cc(OC)c1OC (some centres not stated) | 0.0237 µM | > 100 µM | – | – | < 0.01 µM | > 100 µM | 0.0275 µM | > 100 µM | 0.0482 µM | > 100 µM | < 0.01 µM | 0.0138 µM | – | – | < 0.01 µM | > 100 µM | 0.0115 µM | > 100 µM | < 0.01 µM | > 100 µM
16 | CN(C)CCCn1c(=O)c2ccccc2c2ccccc21 | 22.6 µM | 69.7 µM | – | – | – | – | 22.3 µM | 70.5 µM | 16.9 µM | > 100 µM | 20.4 µM | 52.4 µM | 25.2 µM | > 100 µM | 12.1 µM | 38.5 µM | 13.8 µM | > 100 µM | 16.5 µM | 33.5 µM
17 | COc1ccc(-c2[nH]c3ccccc3c2-c2ccc(OC)cc2)cc1 | 15.4 µM | 33.9 µM | 3.29 µM | 15.5 µM | 11.2 µM | 27.5 µM | 7.66 µM | 23.6 µM | 6.73 µM | 23.5 µM | 2.18 µM | 5.27 µM | 3.28 µM | 20.6 µM | – | – | 3.56 µM | 14.1 µM | 8.31 µM | 25.6 µM
